Test results: patent US20110118397A1, “RUBBER COMPOSITION” (BRIDGESTONE CORPORATION, priority 2008, published 2011)

Tests used:
[1] = octanol/water partition coefficient (log P) by high-performance liquid chromatography, JIS Z 7260-117 (2006)
From the text: (§1) In the present invention (including examples and the like described later), the octanol/water partition coefficient (log P) described above can be measured by a high-performance liquid chromatography according to JIS Z 7260-117 (2006), and it is defined by the following equation:
(§2) log P=log(^┌Co┘/^┌Cw┘) • Co: concentration of an examined substance in a 1-octanol layer • Cw: concentration of an examined substance in an aqueous layer
(§3) The octanol/water partition coefficients (log P) of the vulcanization accelerators obtained in the following respective production examples were measured by a high-performance liquid chromatography according to JIS Z 7260-117 (2006). A high-performance liquid chromatography manufactured by Shimadzu Corporation was used.

From the text for physchem: as §1, §2, §3

Structure (SMILES)	melting point [°C]	chromatographic logP [1]	chromatographic logP (physchem)
CCN(Sc1nc2ccccc2s1)C(C)(C)C [N-ethyl-N-t-butylbenzothiazole-2-sulfenamide]	60 to 61	4.9	–
CC(C)N(Sc1nc2ccccc2s1)C(C)(C)C [N-i-propyl-N-t-butylbenzothiazole-2-sulfenamide]	–	–	5.1
CN(Sc1nc2ccccc2s1)C(C)(C)C [N-methyl-N-t-butylbenzothiazole-2-sulfenamide]	56 to 58	4.5	–

Further lines, with some results ahead:

melting point [°C]	chromatographic logP [1]	Structure (SMILES)	chromatographic logP (physchem)
55 to 56	5.8	CCCCN(Sc1nc2ccccc2s1)C(C)(C)C [N-n-butyl-N-t-butylbenzothiazole-2-sulfenamide]	–
–	5.3	CCCN(Sc1nc2ccccc2s1)C(C)(C)C [N-n-propyl-N-t-butylbenzothiazole-2-sulfenamide]	–
